Test results taken from PMC5078090, “In vivo screening and discovery of novel candidate thalidomide analogs in the zebrafish embryo and chicken embryo model systems” (Oncotarget, 2016).
Entries after “also recorded” stand apart in the source; their conditions may differ.

Key:
[1] = system: Tg(MPO::EGFP)^114 zebrafish; assay: Tg(MPO::EGFP)^114 zebrafish tail fin clip assay of neutrophil migration to the wound site; format: in vivo; conditions: for minimal effective concentration: Danio rerio, Neutrophil, fin clipped at 72 hpf, imaged at 24 h, screened 1-200 μg/mL, where no activity was seen the concentration shown is the lowest screened
From the text: To assess the immunomodulatory effects of the thalidomide analogs across the concentration range used in the previous assay, the transgenic zebrafish line Tg(MPO::EGFP)^114 was used. These embryos express GFP tagged myeloperoxidase, marking neutrophils during the inflammatory response, for example following injury. […] This allowed us to subsequently assess the anti-inflammatory activity of each compound by immersing embryos in the test drug or vehicle. The embryos were examined for migration of neutrophils to the wound site. In comparison to control embryos (Figure 3A) compounds with anti-inflammatory properties had reduction of at least 50% of neutrophils recruited to the wound site (Figure 3). […] We also screened the previously identified six anti-angiogenic compounds of interest in the Tg(MPO::EGFP)^114 line.
Figure 3 The effect of thalidomide analogs on the inflammatory response to wound healing A. Zebrafish (72 hpf) embryos transgenic for a fluorescently tagged neutrophil marker Tg(MPO::EGFP)^114 were fin clipped to induce an inflammatory response and exposed to vehicle or a test compound. Broken line indicates the tail fin with cut and area of the wound site. […] The data represent the mean + the standard error of the mean.
Tg(MPO::EGFP)^114 embryos were tail fin clipped as previously detailed and incubated with test compounds or vehicle control at 72 hpf. Fish were imaged at 24 hours and the number of migratory neutrophils present at the wound site were counted. Compounds inducing an at least 50% reduction of neutrophils to the wound site were considered to have anti-inflammatory properties in this system. All larvae were assessed for viability and morphological integrity. A minimum of 10 embryos were used per concentration per drug. Error bars represent standard error of the mean.
(§1) A broad series of novel thalidomide-based compounds were chemically synthesized (WL, NHG and WDF, NIH), dissolved in DMSO, stored in stock concentrations between 10-100 mg/mL, and used at a final working DMSO concentration of 0.1%. The chemical structures of lead compounds of interest were confirmed by chemical characterization (purity >99.5%). Compounds were screened across a range of concentrations from 1-200 μg/mL to determine the lowest effective concentration.

TNF-α [2] = system: TNF-α; parameters: method as in PMID 22642825, PMID 22277195; conditions: cited from earlier work
WT Zebrafish = assay: WT zebrafish embryo developmental defect (teratogenicity) screen; format: in vivo; conditions: for Eye development / eye diameter in zebrafish embryos / Pectoral fin development / fin length in zebrafish embryos: Figure 4, result in words; for Lowest effective concentration, WT Zebrafish assay: screened 1-200 μg/mL, where no activity was seen the concentration shown is the lowest screened
chicken embryos = assay: In ovo chicken embryo teratogenicity assay; format: in vivo, white leghorn chicken; conditions: for Lowest effective concentration, Chicken assay: HH stage 17-18 embryos, where no activity was seen the concentration shown is the lowest screened; for Defects in chicken embryo development (text and figure legend): applied at HH stage 17-18, result in words
Experimental: Compounds of interest were screened in chicken and/or zebrafish embryos (Figure 4), to determine if these compounds are teratogenic. The chicken embryo is well established as a model to determine the action of compounds upon development.
Fertilized white leghorn chicken embryos were incubated at 38°C and staged according to the Hamburger and Hamilton (HH) stages of development. Embryos were tested at HH stage 17-18 (day 2.5). Following membrane removal test compounds or vehicle control solutions were applied over the embryo. The eggs were sealed and the development of the embryos was monitored up to HH stage 30 (E9). A minimum of 3 embryos were used per concentration, per drug.

[3] = system: fli1:EGFP zebrafish embryos; assay: fli1:EGFP zebrafish embryo angiogenesis assay (intersegmental vessel outgrowth and number); format: in vivo; conditions: for minimal effective concentration: Danio rerio, 24 h, 24 hpf embryos exposed 24 h, screened 1-200 μg/mL, where no activity was seen the concentration shown is the lowest screened; for Anti-angiogenic activity (loss of ISVs or inhibition of ISV outgrowth): fli1:EGFP embryos, 24 h incubation, result in words
Experimental: To determine if our novel thalidomide analogs (Figure 1) had any effect on in vivo angiogenesis, we used fli1:EGFP embryos which express green fluorescent protein (GFP) on endothelial cells throughout development. Embryos were allowed to develop for 24 hours, then exposed to either vehicle or a compound of interest at the concentration range of 1 to 200 μg/mL. During this time the vasculature is rapidly expanding and developing new, naive intersegmental vessels (ISVs). The embryos were imaged after 24 hours of incubation with the drug (Figure 2A). […] We also observed that the potency of each compound varied.
Figure 2 The effect of novel thalidomide analogs on vessel length fli1:EGFP zebrafish were incubated with vehicle or compounds for 24 hours, at which point vessel outgrowth and number were measured. A. Images of zebrafish exposed to the vehicle or test compounds. […] Treatment with C4 (1.5 μg/mL), C18 (50 μg/mL), C81 (50 μg/mL), C82 (5 μg/mL), C83 (20 μg/mL) and C84 (50 μg/mL) show reduction in vessel out growth (white arrow) and in some cases loss of vessel (white asterisks). B. Stalk length & C. stalk number are reduced. Compounds are shown at the lowest concentration producing an effect. The data represent the mean + the standard error of the mean.
Zebrafish embryos were treated with analogs as previously described. Briefly, fli1:EGFP embryos were collected and embryos were allowed to develop for 24 hours. Embryos were dechorionated manually and exposed to test compounds or vehicle control (0.1% DMSO) for a further 24 hours. Embryos were anesthetized with 0.05% MS222 (Tricaine) (Sigma Aldrich) and live visualization of blood vessels was carried out.
as §1

TNF-α [4] = system: TNF-α; parameters: method as in PMID 22642825, PMID 22277195; conditions: rats challenged with systemic LPS; cited from earlier work

SMILES | minimal effective concentration [1] | Effect on neutrophil migration to the wound site (anti-inflammatory activity) ([1]; fin clipped 72 hpf embryos, result in words) | Effect on LPS-induced elevations in TNF-α, cultured RAW 264.7 cells (TNF-α [2]) | Eye development / eye diameter in zebrafish embryos (WT Zebrafish) | Pectoral fin development / fin length in zebrafish embryos (WT Zebrafish) | Lowest effective concentration, WT Zebrafish assay (WT Zebrafish) | Lowest effective concentration, Chicken assay (chicken embryos) | Defects in chicken embryo development (text and figure legend) (chicken embryos) | Teratogenicity in these assays (chicken embryos; chicken and zebrafish embryo assays together, result in words) | minimal effective concentration [3] | Anti-angiogenic activity (loss of ISVs or inhibition of ISV outgrowth) [3] | Effect on LPS-induced elevations in TNF-α, plasma and brain of rats (TNF-α [4]) | Damage observed (chicken embryos; HH stage 17-18 chicken embryos, 100 μg/mL) | Lowest effective anti-angiogenic concentration, fli1:EGFP assay (molar) ([3]; inhibition of vessel outgrowth and number, 24 h exposure)
O=C1NC(=S)CCC1N1C(=O)c2ccccc2C1=S (stereo not shown) [Compound C2, 2,3-dihydro-2-(2-oxo-6-thioxo-3-piperidinyl)-3-thioxo-1H-isoindol-1-one] | 10 µg/mL | reduced neutrophil migration; also recorded: significant anti-inflammatory action | potently lower lipopolysaccharide (LPS)-induced elevations in TNF-α | normal eye development | normal | 10 µg/mL | 100 µg/mL | no effect | non-teratogenic | 10 µg/mL | without anti-angiogenic activities | potently lower lipopolysaccharide (LPS)-induced elevations in TNF-α |  | 
O=C1c2ccccc2C(=S)N1C1CCC(=S)NC1=S (stereo not shown) [Compound C4] | 10 µg/mL |  |  | microopthalmia; also recorded: reductions in eye diameter | malformation in fin development | 10 µg/mL | 100 µg/mL | hemorrhaging; also recorded: abnormal blood vessels and necrotic-like regions in the surrounding yolk sac membrane |  | 1.5 to 100 µg/mL | anti-angiogenic activity |  | Necrotic YSM, hemorrhaging | 4.9 µM
